The text below walks through data of article PMC12598616, “Design and optimization of caspase-1-responsive fluorescent probes for pyroptosis imaging and anti-pyroptosis drug screening” (Chemical Science, 2025).

This series has as its target T1, caspase-1 (Homo sapiens, UniProt P29466).
T1 sequence (P29466 120-297 limits assumed): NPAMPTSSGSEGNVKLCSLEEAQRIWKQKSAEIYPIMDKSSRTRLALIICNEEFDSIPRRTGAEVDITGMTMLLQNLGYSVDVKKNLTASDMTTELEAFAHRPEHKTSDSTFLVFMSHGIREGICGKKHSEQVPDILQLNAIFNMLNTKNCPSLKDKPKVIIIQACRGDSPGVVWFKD
T1 sequence (P29466 317-404 limits assumed): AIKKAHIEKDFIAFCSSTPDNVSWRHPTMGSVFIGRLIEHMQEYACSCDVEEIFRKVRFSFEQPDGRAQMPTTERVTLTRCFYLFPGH
As to the kind of experiment: Sensitivity of probes for caspase-1 (fluorescence at 585 nm). It is filed as biochemical. Particulars: for linear fitting range of Cas-1 concentration: fluorescence intensity at 585 nm vs Cas-1 concentration; for enhancement of fluorescence intensity at 585 nm: Cas-1 0–3 U/mL, assay buffer 50 mM HEPES, 50 mM NaCl, 0.1% chaps, 5% glycerol, 10 mM DTT, 10 mM EDTA, λex 510 nm. The procedure:
The spectral and chemical properties of all probes were then evaluated. Upon interaction with Cas-1, the specific peptide of the probes is cleaved, leading to the disruption of the FRET process in the system and the recovery of donor fluorescence (Fig. 2a). Prior to fluorescence detection, the UV-vis absorption spectra of the probes were acquired. […] Subsequently, the sensitivity of the probes towards Cas-1 was measured in HEPES buffer (50 mM HEPES, 50 mM NaCl, 0.1% chaps, 5% glycerol, 10 mM DTT, 10 mM EDTA). […] The response differences among the probes were more intuitively observed by analyzing the standard curves of fluorescence intensity at 585 nm against the concentration of Cas-1 (Fig. 2b). […] The reaction kinetics of the probes were also measured by monitoring the fluorescence intensity of FPy1, YPy1 and WPy1 (0.5–4 μM) following incubation with Cas-1 (2 U mL^−1) (Fig. S3a–f). […] The reaction time of the probes was also investigated by monitoring the fluorescence spectra of the probes (5 μM) incubated with Cas-1 (2 U mL^−1) at various time intervals (Fig. S4a–c). […] Finally, the selectivity of the probes was evaluated. A series of potential biologically relevant interferents were selected, and the results illustrated that these interferents had no effect on the probes (Fig. S5a–c). Further selectivity validation was performed through incubating with caspase-3 (1 μg mL^−1), caspase-4 (2 U mL^−1), caspase-8 (1 μg mL^−1) from the caspase protease family. […] Therefore, FPy1 appeared to be the prime candidate for Cas-1 imaging applications. […]
Cell culture plates were sourced from Wuxi NEST Biotechnology. Recombinant human caspase-1, caspase-3, caspase-4, and caspase-8 were obtained from Abcam and MCE (Shanghai, China). Anti-cleaved caspase-1 antibody, anti-GAPDH antibody, and goat anti-Rabbit/anti-mouse lgG/HRP were purchased from CST (USA) and Beyotime […]
(Shanghai, China). […]
Medical College (ethical approval number ZJCLA-IACUC-20011003).
(also on this page, place not known: Wang,*f, Wang*abg Supplementary Information (SI) for Chemical Science. This journal is © The Royal Society of Chemistry 2025)
(1 picture or pasted object on this page, not shown here) […]
mixture was stirred for 3 h. DCM was removed under vacuum, and the residue was purified by silica gel column chromatography (DCM/MeOH, 180/1) to afford WPy1 as a dark purple solid (21 mg, 6 % yield). HRMS (ESI+): calcd […]
Analysis of probe purity by LC-MSD
Prepare dilute solutions of FPy1, YPy1 and WPy1 using chromatographic-grade acetonitrile and transfer them to sample vials. Begin with an initial mobile phase consisting of 20% acetonitrile (0.05 % formic acid) and 80% H2O (0.05 % formic acid). Over the course of 30 minutes, implement a gradient change to a mobile phase of 90% acetonitrile (0.05 % formic acid) and 10% H2O (0.05 % FA). Under the elution conditions, LC-MSD was performed on the above probe solutions and blank solvent acetonitrile.
Sensitivity of probes for caspase-1
To investigate the sensitivity of the probes for caspase-1, varying concentration of caspase-1 (0, 0.2, 0.4, 0.6, 0.8, 1.0, 1.25, 1.5, 1.75, 2, 2.5, 3 U/mL) were incubated with FPy1 (5 μM), YPy1 (5 μM) and WPy1 (5 μM) respectively in caspase-1 assay buffer (50 mM HEPES, 50 mM NaCl, 0.1 % chaps, 5 % glycerol, 10 mM DTT, 10 mM EDTA) at 37 °C for 2 hours. Fluorescence spectra were recorded using Hitachi F-2700 spectrophotometer with an excitation at 510 nm (Photomultiplier voltage 700 V; Slit widths ex: 10 nm and em =5.0 nm). The fluorescence intensity of FPy1, YPy1 and WPy1 at 585 nm were plotted against the concentration of caspase-1, and a linear regression fitted from the corresponding concentration of caspase-1, and linear regression was applied to determine the slope k. The limit of detection (LoD) was calculated from 3σ/k, in which σ represents the standard deviation of 15 blank measurements.
Various concentrations of FPy1, YPy1 and WPy1 (0.5, 1, 2, 4 μM) in 100 μL enzyme assay buffer (50 mM HEPES, 50 […]

With “–FLTDG– [FPy1, RhoB donor, hNR quencher]”, under “Cas-1, 3σ/k, σ from 15 blank measurements, probe 5 μM, 37 °C, 2 h, estimated”, the limit of detection was 3.7 U L^−1. In addition, the “fluorescence intensity at 585 nm at the same Cas-1 concentration” value (before maximum, compared to YPy1, probe 5 μM) is on record as “stronger fluorescence intensity at 585 nm compared to YPy1”. In addition, the “catalytic efficiency of Cas-1 for the probe” value (compared with YPy1, inferred from intensity at same Cas-1 concentration) is recorded as “higher catalytic efficiency for FPy1 than YPy1”. Where the note is “probe 5 μM, 37 °C, 2 h”, the “linear fitting range of Cas-1 concentration” value was 0–1 U mL^−1 and the “enhancement of fluorescence intensity at 585 nm” value is “approximately 20.2 fold”.
As for “–YVADG– [YPy1, caspase-1-responsive FRET probe with recognition peptide –YVADG–; RhoB donor, hNR quencher]”, under “probe 5 μM, 37 °C, 2 h”, the “linear fitting range of Cas-1 concentration” value is recorded as 0–2 U mL^−1 and the “enhancement of fluorescence intensity at 585 nm” value is listed as about 19.2 fold.
